Reference: patent publication US10456509B2, “Chlorhexidine gluconate compositions, resin systems and articles” (3M INNOVATIVE PROPERTIES COMPANY, priority 2012, dated 2019)

Columns and labels:
[1] = Solubility of lyophilized CHG in vehicles, Lyophilization Method; details: 0.2 wt. % lyophilized CHG
Experimental: The Lyophilization Method. Lyophilized CHG was prepared by freeze-drying the aqueous CHG solution (20 wt. % solution in water, obtained from Xttrium Laboratories Inc., Chicago, Ill.).
For lower viscosity vehicles, a 5 ml sample of the non-aqueous vehicle of interest was measured into a glass vial. For higher viscosity vehicles that were difficult to transfer by volume, a 5 gm sample was weighed into the vial. Next, 0.01 g of lyophilized CHG was added to the vial. The sample was capped and mixed by shaking for 30 seconds. The sample was immediately observed and then observed again after 2 minutes and again after 24 hours. After 24 hours, the sample was placed in a 50° C. oven for 2 hours and then removed and immediately observed. These samples were allowed to cool to room temperature and a final observation was made.
CHG solutions. The solutions containing CHG were either a 20 wt. % aqueous solution of CHG or a 10-20% w/w solution of CHG in a non-aqueous vehicle. The non-aqueous solutions were prepared by freeze drying the aqueous CHG solution to produce lyophilized CHG. Finely divided, lyophilized CHG was then solubilized in a non-aqueous vehicle at room temperature with continuous stirring for eight hours.

[2] = Solubility Screening of CHG in vehicles, Vacuum Method
Experimental: Solubility Screening. Screening tests were conducted to determine the solubility of CHG in a wide variety of vehicles. Tests were conducted using the Vacuum Method and the Lyophilizing Method.
Vacuum Method. […] The flask was put in a 60° C. oil bath and stirred with a magnetic stir bar. […] In those cases, after nearly all the water was removed, additional vehicle was added to bring the final weight to 50 grams. The resulting concentration of CHG and residual water were determined. Also, the final state of the solution was qualitatively evaluated to determine if the mixture was transparent and apparently homogenous, or clearly inhomogeneous.

## PPG-5 Ceteth-20
[1]; after 2 minutes
  Apparent solubility 2 minutes: no
[1]; after 2 hours in 50° C. oven
  Apparent solubility 2 hours 50° C.: soluble
[1]; after 24 hours
  Apparent solubility >24 hours: partial
[1]; after cooling to room temperature
  Apparent solubility after cooling: soluble
[1]; observed immediately after mixing
  Apparent solubility immediate: no
[2]
  Final State: Inhomogeneous
